In patent publication US4338305A, “Use of LRH and LRH agonists” (American Home Products Corporation, priority 1975, dated 1982):
Where a name gives a salt, the structure may show the parent alone. Read-outs that look alike come from different tables or passages of the source. Non-standard residues stand in square brackets, D forms with d. Residues, ends and D or L forms follow the SMILES beside them. pGlu = O=C1CC[C@@H](C(=O)O)N1

Tests used:
[1] = literature report; cited from earlier work
[2] = system: Female, Sprague-Dawley rats
Excerpt: Female, Sprague-Dawley rats, 350±30 g., are caged daily (P.M.) with adult, sexually experienced Sprague-Dawley males. Vaginal smears are taken each A.M. after cohabitation. The presence of vaginal sperm is used as the index of mating and the initiation of pregnancy. Day 1 of pregnancy is taken as the day sperm is found in the vaginal smear. Mated females are then grouped separately. Treatment is begun at any time over the first 12 days of pregnancy at a divided dose (9 A.M. and 3 P.M.) or a single treatment. Claudogenic activity is defined for compounds administered over the first 7 days inclusive of pregnancy (Pre-implantation). Interceptive activity is defined for compounds administered days 7-12 inclusive of pregnancy (Post-implantation). Rats are sacrificed on day 14 (claudogen), day 18 (interceptive) or allowed to come to term prior to the option of sacrifice (claudogen or interceptive.) Rats containing at least one "Normal" fetus are considered pregnant.
For the purpose of defining the post-coital stages of pregnancy in the rat as an experimental model, the following schedule is provided in definition of post-coital contraceptive activity which, for the purpose of this disclosure, is intended to embrace both pre-(claudogenic) and post-(interceptive) implantation contraceptive activity: day 1--vaginal sperm; days 1-3--ova transport in oviducts, and fertilization; days 3-5 blastocyst free in uterine lumen; days 5-7--implantation into uterine wall; days>7--post implantation.

Proestrous female rats = assay: Ovulation Induction in the Rat; format: in vivo; conditions: as a result of induced LH production
Experimental: (b) Ovulation Induction in the Rat
Proestrous female rats were injected intraperitoneally with a hypnotic dose of Nembutal about (~60 mg/kg) at 1:30 P.M. This treatment blocks the spontaneous ovulatory surge of pituitary LH which generally occurs between 2:00 and 4:00 P.M. Between 1:40 and 1:50 P.M. the recipients then received the test material via the jugular vein. The following morning the animals are sacrificed and the fallopian tubes examined for ova under a dissecting microscope.

[3] = PO, total daily dose 500 μg/rat, Rx days 7-12 post coitus
[4] = PO, total daily dose 1000 μg/rat, Rx days 1-7 post coitus
[5] = PO, total daily dose 1000 μg/rat, Rx days 7-12 post coitus
[6] = SC, total daily dose 5.0 μg/rat, Rx days 7-12 post coitus
[7] = SC, total daily dose 100 μg/rat, Rx days 1-3 post coitus
[8] = SC, total daily dose 100 μg/rat, Rx days 1-7 post coitus
[9] = SC, total daily dose 200 μg/rat, Rx days 1-3 post coitus
[10] = SC, total daily dose 5000 μg/rat, Rx day 3 post coitus
[11] = PO, total daily dose 500 μg/rat, Rx days 1-7 post coitus
[12] = SC, total daily dose 300 μg/rat, Rx days 1-3 post coitus

CCNC(=O)[C@@H]1CCCN1C(=O)[C@H](CCCNC(=N)N)NC(=O)[C@H](CC(C)C)NC(=O)[C@@H](C)NC(=O)[C@H](Cc1ccc(O)cc1)NC(=O)[C@H](CO)NC(=O)[C@H](Cc1c[nH]c2ccccc12)NC(=O)[C@H](Cc1c[nH]cn1)NC(=O)[C@@H]1CCC(=O)N1
activity relative to LRH [1]: ~50 times | potency/activity versus LRH, in words [1]: markedly more potent than LRH | % inhibition of Pregnancy ([2]; PO, total daily dose 200 μg/rat, Rx days 7-12 post coitus): 0% | % inhibition of Pregnancy [2, 3]: 67% | % inhibition of Pregnancy [2, 4]: 100% | % inhibition of Pregnancy [2, 5]: 100% | % inhibition of Pregnancy ([2]; SC, total daily dose 0.10 μg/rat, Rx days 7-12 post coitus): 0% | % inhibition of Pregnancy ([2]; SC, total daily dose 1.0 μg/rat, Rx days 1-7 post coitus): 100% | % inhibition of Pregnancy ([2]; SC, total daily dose 1.0 μg/rat, Rx days 7-12 post coitus): 100% | % inhibition of Pregnancy [2, 6]: 100% | % inhibition of Pregnancy ([2]; SC, total daily dose 50 μg/rat, Rx days 1-3 post coitus): 40% | % inhibition of Pregnancy [2, 7]: 80% | % inhibition of Pregnancy [2, 8]: 100% | % inhibition of Pregnancy [2, 9]: 100% | % inhibition of Pregnancy [2, 10]: 100% | % inhibition of Pregnancy ([2]; SC, total daily dose 5000 μg/rat, Rx day 7 post coitus): 0% | % inhibition of Pregnancy ([2]; SC, total daily dose 5000 μg/rat, Rx day 8 post coitus): 100% | % inhibition of Pregnancy ([2]; SC, total daily dose .002 μg/rat, Rx days 1-7 post coitus): 0% | % inhibition of Pregnancy ([2]; SC, total daily dose .010 μg/rat, Rx days 1-7 post coitus): 30%

CCNC(=O)[C@@H]1CCCN1C(=O)[C@H](CCCNC(=N)N)NC(=O)[C@H](CC(C)C)NC(=O)[C@@H](CC(C)C)NC(=O)[C@H](Cc1ccc(O)cc1)NC(=O)[C@H](CO)NC(=O)[C@H](Cc1c[nH]c2ccccc12)NC(=O)[C@H](Cc1c[nH]cn1)NC(=O)[C@@H]1CCC(=O)N1
% inhibition of Pregnancy [2, 9]: 20% | % inhibition of Pregnancy ([2]; SC, total daily dose 200 μg/rat, Rx days 1-7 post coitus): 100%

CCNC(=O)[C@@H]1CCCN1C(=O)[C@H](CCCNC(=N)N)NC(=O)[C@H](CC(C)C)NC(=O)[C@@H](CC)NC(=O)[C@H](Cc1ccc(O)cc1)NC(=O)[C@H](CO)NC(=O)[C@H](Cc1c[nH]c2ccccc12)NC(=O)[C@H](Cc1c[nH]cn1)NC(=O)[C@@H]1CCC(=O)N1
% inhibition of Pregnancy [2, 3]: 20% | % inhibition of Pregnancy ([2]; SC, total daily dose 5.0 μg/rat, Rx days 1-7 post coitus): 40% | % inhibition of Pregnancy [2, 6]: 80% | % inhibition of Pregnancy [2, 8]: 100%

CCNC(=O)[C@@H]1CCCN1C(=O)[C@H](CCCNC(=N)N)NC(=O)[C@H](CS)NC(=O)[C@@H](C)NC(=O)[C@H](Cc1ccc(O)cc1)NC(=O)[C@H](CO)NC(=O)[C@H](Cc1c[nH]c2ccccc12)NC(=O)[C@H](Cc1c[nH]cn1)NC(=O)[C@@H]1CCC(=O)N1 ([pGlu]HWSY[dA]CRP-NHEt)
activity relative to LRH as ovulation inducing agents (Proestrous female rats): > 40 times

CCNC(=O)[C@@H]1CCCN1C(=O)[C@H](CCCNC(=N)N)NC(=O)[C@H](CS)NC(=O)[C@@H](CC(C)C)NC(=O)[C@H](Cc1ccc(O)cc1)NC(=O)[C@H](CO)NC(=O)[C@H](Cc1c[nH]c2ccccc12)NC(=O)[C@H](Cc1c[nH]cn1)NC(=O)[C@@H]1CCC(=O)N1 ([pGlu]HWSY[dL]CRP-NHEt)
activity relative to LRH as ovulation inducing agents (Proestrous female rats): > 40 times

CCNC(=O)[C@@H]1CCCN1C(=O)[C@H](CCCNC(=N)N)NC(=O)[C@H](CO)NC(=O)[C@@H](CC(C)C)NC(=O)[C@H](Cc1ccc(O)cc1)NC(=O)[C@H](CO)NC(=O)[C@H](Cc1c[nH]c2ccccc12)NC(=O)[C@H](Cc1c[nH]cn1)NC(=O)[C@@H]1CCC(=O)N1 ([pGlu]HWSY[dL]SRP-NHEt)
activity relative to LRH as ovulation inducing agents (Proestrous female rats): > 40 times

CCNC(=O)[C@@H]1CCCN1C(=O)[C@H](CCCNC(=N)N)NC(=O)[C@H](CO)NC(=O)[C@@H](CO)NC(=O)[C@H](Cc1ccc(O)cc1)NC(=O)[C@H](CO)NC(=O)[C@H](Cc1c[nH]c2ccccc12)NC(=O)[C@H](Cc1c[nH]cn1)NC(=O)[C@@H]1CCC(=O)N1 ([pGlu]HWSY[dS]SRP-NHEt)
activity relative to LRH as ovulation inducing agents (Proestrous female rats): > 40 times

CC(C)C[C@H](NC(=O)CNC(=O)[C@H](Cc1ccc(O)cc1)NC(=O)[C@H](CO)NC(=O)[C@H](Cc1c[nH]c2ccccc12)NC(=O)[C@H](Cc1cnc[nH]1)NC(=O)[C@@H]1CCC(=O)N1)C(=O)N[C@@H](CCCNC(=N)N)C(=O)N1CCC[C@H]1C(=O)NCC(N)=O [LRH, L-(5-oxo-prolyl)-L-histidyl-L-tryptophyl-L-seryl-L-tyrosyl-glycyl-L-leucyl-L-arginyl-L-prolyl-glycinamide, reference compound]
% inhibition of Pregnancy [2, 11]: 20% | % inhibition of Pregnancy [2, 3]: 0% | % inhibition of Pregnancy [2, 4]: 60% | % inhibition of Pregnancy [2, 5]: 100% | % inhibition of Pregnancy ([2]; SC, total daily dose 50 μg/rat, Rx days 1-7 post coitus): 0% | % inhibition of Pregnancy [2, 7]: 0% | % inhibition of Pregnancy [2, 8]: 100% | % inhibition of Pregnancy ([2]; SC, total daily dose 200 μg/rat, Rx days 7-12 post coitus): 50% | % inhibition of Pregnancy [2, 12]: 20% | % inhibition of Pregnancy ([2]; SC, total daily dose 500 μg/rat, Rx days 1-3 post coitus): 40% | % inhibition of Pregnancy ([2]; SC, total daily dose 1000 μg/rat, Rx days 1-3 post coitus): 40% | % inhibition of Pregnancy ([2]; SC, total daily dose 1000 μg/rat, Rx days 1-7 post coitus): 100% | % inhibition of Pregnancy [2, 10]: 100% | post-coital anti-pregnancy (claudogenic/interceptive) effect ([2]; rat, administered post-coitally): effective in inhibiting pregnancy | teratogenicity ([2]; rat, in vivo): some signs of teratogenicity

CC(C)C[C@H](NC(=O)C(C)(C)NC(=O)[C@H](Cc1ccc(O)cc1)NC(=O)[C@H](CO)NC(=O)[C@H](Cc1c[nH]c2ccccc12)NC(=O)[C@H](Cc1c[nH]cn1)NC(=O)[C@@H]1CCC(=O)N1)C(=O)N[C@@H](CCCNC(=N)N)C(=O)N1CCC[C@H]1C(=O)NCC(N)=O [[2-methyl-Ala^6]LRH, L-(5-oxoprolyl)-L-histidyl-L-tryptophyl-L-seryl-L-tyrosyl-2-methylalanyl-L-leucyl-L-arginyl-L-prolylglycinamide acetate salt]
% inhibition of Pregnancy [2, 8]: 75% | % inhibition of Pregnancy ([2]; SC, total daily dose 500 μg/rat, Rx days 1-7 post coitus): 100%

CC(C)C[C@H](NC(=O)[C@@H](C)NC(=O)[C@H](Cc1ccc(O)cc1)NC(=O)[C@H](CO)NC(=O)[C@H](Cc1c[nH]c2ccccc12)NC(=O)[C@H](Cc1c[nH]cn1)NC(=O)[C@@H]1CCC(=O)N1)C(=O)N[C@@H](CCCNC(=N)N)C(=O)N1CCC[C@H]1C(=O)NCC(N)=O [[D-Ala^6]LRH]
% inhibition of Pregnancy [2, 7]: 17% | % inhibition of Pregnancy [2, 12]: 50%

CCNC(=O)[C@@H]1CCCN1C(=O)[C@H](CCCNC(=N)N)NC(=O)[C@H](CC(C)C)NC(=O)[C@@H](CC(=O)O)NC(=O)[C@H](Cc1ccc(O)cc1)NC(=O)[C@H](CO)NC(=O)[C@H](Cc1c[nH]c2ccccc12)NC(=O)[C@H](Cc1c[nH]cn1)NC(=O)[C@@H]1CCC(=O)N1 [[D-Asp^6, des-Gly-NH2^10]LRH ethylamide]
activity relative to LRH as ovulation inducing agents (Proestrous female rats): > 40 times

CCNC(=O)[C@@H]1CCCN1C(=O)[C@H](CCCNC(=N)N)NC(=O)[C@H](CC(C)C)NC(=O)[C@@H](CS)NC(=O)[C@H](Cc1ccc(O)cc1)NC(=O)[C@H](CO)NC(=O)[C@H](Cc1c[nH]c2ccccc12)NC(=O)[C@H](Cc1c[nH]cn1)NC(=O)[C@@H]1CCC(=O)N1 [[D-Cys^6, des-Gly-NH2^10]LRH ethylamide]
activity relative to LRH as ovulation inducing agents (Proestrous female rats): > 40 times

CCNC(=O)[C@@H]1CCCN1C(=O)[C@H](CCCNC(=N)N)NC(=O)[C@H](CC(C)C)NC(=O)[C@@H](CCC(=O)O)NC(=O)[C@H](Cc1ccc(O)cc1)NC(=O)[C@H](CO)NC(=O)[C@H](Cc1c[nH]c2ccccc12)NC(=O)[C@H](Cc1c[nH]cn1)NC(=O)[C@@H]1CCC(=O)N1 [[D-Glu^6, des-Gly-NH2^10]LRH ethylamide]
activity relative to LRH as ovulation inducing agents (Proestrous female rats): > 40 times

CCNC(=O)[C@@H]1CCCN1C(=O)[C@H](CCCNC(=N)N)NC(=O)[C@H](CC(C)C)NC(=O)[C@@H](CCCCN)NC(=O)[C@H](Cc1ccc(O)cc1)NC(=O)[C@H](CO)NC(=O)[C@H](Cc1c[nH]c2ccccc12)NC(=O)[C@H](Cc1c[nH]cn1)NC(=O)[C@@H]1CCC(=O)N1 [[D-Lys^6, des-Gly-NH2^10]LRH ethylamide]
activity relative to LRH as ovulation inducing agents (Proestrous female rats): > 40 times

CC(C)C[C@H](NC(=O)[C@@H](CCCCN)NC(=O)[C@H](Cc1ccc(O)cc1)NC(=O)[C@H](CO)NC(=O)[C@H](Cc1c[nH]c2ccccc12)NC(=O)[C@H](Cc1c[nH]cn1)NC(=O)[C@@H]1CCC(=O)N1)C(=O)N[C@@H](CCCNC(=N)N)C(=O)N1CCC[C@H]1C(=O)NCC(N)=O [[D-Lys^6]LRH, L-Pyroglutamyl-L-histidyl-L-tryptophyl-L-seryl-L-tyrosyl-D-lysyl-L-leucyl-L-arginyl-L-prolyl-glycinamide]
% inhibition of Pregnancy [2, 11]: 40% | % inhibition of Pregnancy ([2]; SC, total daily dose 5.0 μg/rat, Rx days 1-12 post coitus): 20% | % inhibition of Pregnancy [2, 7]: 0% | % inhibition of Pregnancy [2, 12]: 60% | % inhibition of Pregnancy ([2]; SC, total daily dose 300 μg/rat, Rx days 1-7 post coitus): 100%
